In the CheMixHub viscosity set:

Assay: xn = mol fraction of the nth substance listed

COCCOCCOCCO + CCCO
viscosity [mPa·s], 101 kPa
Settings	298.15 K	308.15 K	318.15 K
x1 = 0.0134	1.952	1.526	1.246
x1 = 0.0366	1.983	1.555	1.273
x1 = 0.0639	2.034	1.604	1.32
x1 = 0.1165	2.159	1.692	1.4
x1 = 0.1568	2.273	1.786	1.484
x1 = 0.2037	2.434	1.894	1.576
x1 = 0.2664	2.652	2.064	1.715
x1 = 0.3205	2.847	2.213	1.851
x1 = 0.3498	3.007	2.328	1.927
x1 = 0.3669	3.042	2.349	1.973
x1 = 0.4076	3.264	2.495	2.085
x1 = 0.4623	3.514	2.678	2.228
x1 = 0.5601	4	3.021	2.51
x1 = 0.6022	4.21	3.158	2.624
x1 = 0.6441	4.433	3.312	2.741
x1 = 0.7071	4.778	3.545	2.921
x1 = 0.7635	5.059	3.746	3.074
x1 = 0.8228	5.311	3.929	3.238
x1 = 0.8494	5.452	4.008	3.312
x1 = 0.9137	5.74	4.23	3.489
x1 = 0.9358	5.875	4.299	3.55
x1 = 0.961	6.08	4.384	3.616

COCCOCCOCCOC + CCCO
viscosity [mPa·s]
Settings	298.15 K	308.15 K
101 kPa, x1 = 0.0386	1.777	1.406
101 kPa, x1 = 0.0615	1.714	1.363
101 kPa, x1 = 0.076	1.697	1.34
101 kPa, x1 = 0.1064	1.636	1.318
101 kPa, x1 = 0.1595	1.584	1.28
101 kPa, x1 = 0.2157	1.577	1.288
101 kPa, x1 = 0.2499	1.572	1.274
101 kPa, x1 = 0.2631	1.57	1.275
101 kPa, x1 = 0.3355	1.594	1.288
101 kPa, x1 = 0.422	1.607	1.315
101 kPa, x1 = 0.4701	1.635	1.335
101 kPa, x1 = 0.5148	1.654	1.363
101 kPa, x1 = 0.5848	1.693	1.385
101 kPa, x1 = 0.6662	1.743	1.442
101 kPa, x1 = 0.7126	1.772	1.456
101 kPa, x1 = 0.7778	1.826	1.483
101 kPa, x1 = 0.8098	1.853	1.508
101 kPa, x1 = 0.8789	1.89	1.536
101 kPa, x1 = 0.9504	1.942	1.58
101 kPa, x1 = 0.9719	1.956	1.592
101.33 kPa, x1 = 0.0081	1.918	–
101.33 kPa, x1 = 0.0165	1.884	–
101.33 kPa, x1 = 0.0245	1.856	–
101.33 kPa, x1 = 0.0336	1.824	–
101.33 kPa, x1 = 0.048	1.781	–
101.33 kPa, x1 = 0.0692	1.725	–
101.33 kPa, x1 = 0.0946	1.67	–
101.33 kPa, x1 = 0.1327	1.614	–
101.33 kPa, x1 = 0.1747	1.573	–
101.33 kPa, x1 = 0.2259	1.549	–
101.33 kPa, x1 = 0.2757	1.544	–
101.33 kPa, x1 = 0.3226	1.548	–
101.33 kPa, x1 = 0.3691	1.563	–
101.33 kPa, x1 = 0.4157	1.578	–
101.33 kPa, x1 = 0.4606	1.598	–
101.33 kPa, x1 = 0.5153	1.625	–
101.33 kPa, x1 = 0.5714	1.653	–
101.33 kPa, x1 = 0.6283	1.684	–
101.33 kPa, x1 = 0.6732	1.713	–
101.33 kPa, x1 = 0.7227	1.743	–
101.33 kPa, x1 = 0.7726	1.778	–
101.33 kPa, x1 = 0.8162	1.812	–
101.33 kPa, x1 = 0.8625	1.848	–
101.33 kPa, x1 = 0.9112	1.888	–
101.33 kPa, x1 = 0.9347	1.904	–
101.33 kPa, x1 = 0.9568	1.919	–
101.33 kPa, x1 = 0.9775	1.935	–

Nc1ccccc1 + CCCO
viscosity [mPa·s]
Settings	294.15 K	298.15 K	303.15 K	308.15 K	313.15 K
100 kPa, x1 = 0.091	–	–	1.673	–	1.319
100 kPa, x1 = 0.1839	–	–	1.635	–	1.275
100 kPa, x1 = 0.2978	–	–	1.609	–	1.255
100 kPa, x1 = 0.3949	–	–	1.626	–	1.271
100 kPa, x1 = 0.4741	–	–	1.673	–	1.31
100 kPa, x1 = 0.5952	–	–	1.819	–	1.399
100 kPa, x1 = 0.7405	–	–	2.129	–	1.602
100 kPa, x1 = 0.8903	–	–	2.582	–	1.958
101.33 kPa, x1 = 0.1006	2.097	1.902	1.685	1.501	1.341
101.33 kPa, x1 = 0.1991	2.123	1.93	1.703	1.516	1.357
101.33 kPa, x1 = 0.2994	2.219	1.993	1.753	1.56	1.394
101.33 kPa, x1 = 0.3992	2.336	2.098	1.846	1.633	1.446
101.33 kPa, x1 = 0.5007	2.499	2.234	1.952	1.727	1.526
101.33 kPa, x1 = 0.6011	2.689	2.398	2.092	1.842	1.638
101.33 kPa, x1 = 0.7011	2.963	2.641	2.304	2	1.791
101.33 kPa, x1 = 0.8002	3.289	2.925	2.575	2.241	1.981
101.33 kPa, x1 = 0.8983	3.671	3.245	2.81	2.455	2.16

COCCOCCOCCOC + CCCOC(C)=O
viscosity [mPa·s], 101.3 kPa
Settings	298.15 K	308.15 K	318.15 K
x1 = 0.005	0.558	0.492	0.442
x1 = 0.0351	0.589	0.517	0.465
x1 = 0.0513	0.607	0.532	0.476
x1 = 0.0859	0.643	0.562	0.503
x1 = 0.1416	0.709	0.613	0.544
x1 = 0.1846	0.757	0.652	0.577
x1 = 0.2654	0.857	0.734	0.647
x1 = 0.3185	0.922	0.785	0.683
x1 = 0.3767	1.009	0.848	0.733
x1 = 0.426	1.078	0.902	0.784
x1 = 0.5278	1.224	1.019	0.862
x1 = 0.5868	1.313	1.086	0.921
x1 = 0.627	1.388	1.141	–
x1 = 0.6327	–	–	0.964
x1 = 0.69	1.486	1.22	1.025
x1 = 0.7402	1.567	1.282	1.077
x1 = 0.8031	1.67	1.365	1.137
x1 = 0.8451	1.744	1.427	1.177
x1 = 0.8711	1.784	1.472	1.207
x1 = 0.9467	1.9	1.542	1.276
x1 = 0.9582	1.91	1.552	1.285
x1 = 0.979	1.939	1.513	1.302
